Measured values published in ChEMBL document CHEMBL5291721, “A preclinical secondary pharmacology resource illuminates target-adverse drug reaction associations of marketed drugs” (Nat Commun, 2023).

Assays:
Adenosine receptor A2a = Adenosine receptor A2a (Homo sapiens, UniProt P29274)
Adenosine receptor A3 = molecular target: T1, Adenosine receptor A3 (Homo sapiens, UniProt P0DMS8)
T1 sequence (P0DMS8 whole entry): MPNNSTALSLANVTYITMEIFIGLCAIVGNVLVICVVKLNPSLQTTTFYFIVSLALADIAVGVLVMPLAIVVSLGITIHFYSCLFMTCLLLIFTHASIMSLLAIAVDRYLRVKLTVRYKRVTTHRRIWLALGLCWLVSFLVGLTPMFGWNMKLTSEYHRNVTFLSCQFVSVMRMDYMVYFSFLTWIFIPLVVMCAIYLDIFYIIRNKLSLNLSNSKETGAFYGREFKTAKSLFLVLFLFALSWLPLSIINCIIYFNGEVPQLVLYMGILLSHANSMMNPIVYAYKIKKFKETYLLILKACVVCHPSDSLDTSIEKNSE

[1] = molecular target: T2, Alpha-2A adrenergic receptor (Homo sapiens, UniProt P08913); assay type: functional, cell-based
T2 sequence (P08913 whole entry): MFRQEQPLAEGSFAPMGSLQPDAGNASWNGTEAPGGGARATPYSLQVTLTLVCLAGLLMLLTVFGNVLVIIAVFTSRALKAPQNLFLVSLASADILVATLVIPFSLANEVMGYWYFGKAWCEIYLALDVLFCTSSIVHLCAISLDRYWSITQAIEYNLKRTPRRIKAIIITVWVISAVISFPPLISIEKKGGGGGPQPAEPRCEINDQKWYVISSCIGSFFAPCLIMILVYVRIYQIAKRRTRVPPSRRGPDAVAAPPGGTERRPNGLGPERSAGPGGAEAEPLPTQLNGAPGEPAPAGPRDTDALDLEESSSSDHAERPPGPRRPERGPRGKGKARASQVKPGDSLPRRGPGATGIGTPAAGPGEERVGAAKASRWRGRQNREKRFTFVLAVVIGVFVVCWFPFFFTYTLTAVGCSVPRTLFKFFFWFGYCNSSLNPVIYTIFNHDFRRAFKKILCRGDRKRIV

[2] = molecular target: T3, Type-1 angiotensin II receptor (Homo sapiens, UniProt P30556)
T3 sequence (P30556 whole entry): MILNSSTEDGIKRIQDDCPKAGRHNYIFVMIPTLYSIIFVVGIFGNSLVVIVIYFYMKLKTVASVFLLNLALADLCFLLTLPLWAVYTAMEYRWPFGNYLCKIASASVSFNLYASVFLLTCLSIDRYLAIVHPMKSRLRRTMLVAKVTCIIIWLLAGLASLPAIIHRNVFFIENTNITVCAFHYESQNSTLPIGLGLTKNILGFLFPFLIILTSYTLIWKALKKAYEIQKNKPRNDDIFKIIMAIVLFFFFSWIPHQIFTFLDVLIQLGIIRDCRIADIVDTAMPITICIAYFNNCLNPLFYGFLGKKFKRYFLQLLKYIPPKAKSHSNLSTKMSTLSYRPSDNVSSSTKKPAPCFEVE

D(1A) dopamine receptor = D(1A) dopamine receptor (Homo sapiens, UniProt P21728); assay type: functional, cell-based
Sequence of D(1A) dopamine receptor (P21728 whole entry): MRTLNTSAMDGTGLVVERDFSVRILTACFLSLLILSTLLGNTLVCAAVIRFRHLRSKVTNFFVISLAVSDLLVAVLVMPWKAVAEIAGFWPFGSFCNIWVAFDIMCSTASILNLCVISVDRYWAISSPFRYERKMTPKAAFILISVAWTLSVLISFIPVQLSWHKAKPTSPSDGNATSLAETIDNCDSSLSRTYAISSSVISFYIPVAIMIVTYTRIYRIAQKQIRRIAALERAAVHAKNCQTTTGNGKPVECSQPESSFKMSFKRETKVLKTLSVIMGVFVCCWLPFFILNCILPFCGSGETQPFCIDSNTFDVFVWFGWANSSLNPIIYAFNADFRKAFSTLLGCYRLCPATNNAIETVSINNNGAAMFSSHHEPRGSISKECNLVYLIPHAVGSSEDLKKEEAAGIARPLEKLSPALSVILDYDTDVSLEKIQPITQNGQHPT

[3] = molecular target: Gamma-aminobutyric acid receptor subunit alpha-1 (Rattus norvegicus, UniProt P62813); assay type: functional
Sequence of Gamma-aminobutyric acid receptor subunit alpha-1 (P62813 whole entry): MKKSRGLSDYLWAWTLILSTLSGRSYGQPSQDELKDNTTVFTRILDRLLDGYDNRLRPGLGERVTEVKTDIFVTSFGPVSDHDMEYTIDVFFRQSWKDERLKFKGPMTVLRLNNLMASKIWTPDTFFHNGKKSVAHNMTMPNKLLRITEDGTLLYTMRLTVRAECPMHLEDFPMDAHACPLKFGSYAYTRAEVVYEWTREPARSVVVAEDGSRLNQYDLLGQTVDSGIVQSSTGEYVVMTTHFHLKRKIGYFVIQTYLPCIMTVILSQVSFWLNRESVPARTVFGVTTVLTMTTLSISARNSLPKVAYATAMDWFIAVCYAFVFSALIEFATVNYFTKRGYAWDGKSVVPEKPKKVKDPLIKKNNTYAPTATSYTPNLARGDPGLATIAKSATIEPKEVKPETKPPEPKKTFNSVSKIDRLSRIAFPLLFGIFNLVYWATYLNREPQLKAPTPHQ

[4] = molecular target: T4, 5-hydroxytryptamine receptor 1A (Homo sapiens, UniProt P08908); assay type: functional, cell-based
T4 sequence (P08908 whole entry): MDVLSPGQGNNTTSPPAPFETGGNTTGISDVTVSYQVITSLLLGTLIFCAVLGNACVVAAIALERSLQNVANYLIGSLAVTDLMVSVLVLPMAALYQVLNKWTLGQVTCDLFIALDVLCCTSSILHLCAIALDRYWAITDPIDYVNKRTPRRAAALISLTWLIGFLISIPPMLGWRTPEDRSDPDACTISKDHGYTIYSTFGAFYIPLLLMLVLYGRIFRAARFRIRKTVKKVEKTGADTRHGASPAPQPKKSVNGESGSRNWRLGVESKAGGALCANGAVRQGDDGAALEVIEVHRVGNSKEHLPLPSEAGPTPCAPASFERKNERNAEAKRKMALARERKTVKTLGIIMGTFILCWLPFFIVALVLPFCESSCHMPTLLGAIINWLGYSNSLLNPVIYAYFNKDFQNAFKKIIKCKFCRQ

Melanocortin receptor 3 = Melanocortin receptor 3 (Homo sapiens, UniProt P41968)
Sequence of Melanocortin receptor 3 (P41968 whole entry): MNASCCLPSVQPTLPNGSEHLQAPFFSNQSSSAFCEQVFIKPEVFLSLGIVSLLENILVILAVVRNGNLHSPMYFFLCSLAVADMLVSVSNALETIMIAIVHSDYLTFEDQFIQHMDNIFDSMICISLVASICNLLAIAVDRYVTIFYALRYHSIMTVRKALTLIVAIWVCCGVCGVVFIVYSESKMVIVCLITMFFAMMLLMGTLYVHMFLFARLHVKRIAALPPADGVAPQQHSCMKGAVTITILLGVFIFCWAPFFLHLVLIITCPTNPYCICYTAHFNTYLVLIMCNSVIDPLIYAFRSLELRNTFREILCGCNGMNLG

Motilin receptor = Motilin receptor (Homo sapiens, UniProt O43193)
Sequence of Motilin receptor (O43193 whole entry): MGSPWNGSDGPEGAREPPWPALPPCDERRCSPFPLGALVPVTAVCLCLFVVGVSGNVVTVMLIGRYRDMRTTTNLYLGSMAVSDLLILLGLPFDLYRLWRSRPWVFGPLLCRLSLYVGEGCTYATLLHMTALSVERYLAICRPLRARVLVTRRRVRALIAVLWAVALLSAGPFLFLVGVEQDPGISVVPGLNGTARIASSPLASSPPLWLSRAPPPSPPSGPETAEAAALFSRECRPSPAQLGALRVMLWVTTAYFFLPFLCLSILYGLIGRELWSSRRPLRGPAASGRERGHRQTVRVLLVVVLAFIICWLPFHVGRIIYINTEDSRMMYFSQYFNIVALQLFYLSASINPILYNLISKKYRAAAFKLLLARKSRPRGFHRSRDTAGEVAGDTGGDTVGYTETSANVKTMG

[5] = molecular target: T5, Equilibrative nucleoside transporter 1 (Homo sapiens, UniProt Q99808)
T5 sequence (Q99808 whole entry): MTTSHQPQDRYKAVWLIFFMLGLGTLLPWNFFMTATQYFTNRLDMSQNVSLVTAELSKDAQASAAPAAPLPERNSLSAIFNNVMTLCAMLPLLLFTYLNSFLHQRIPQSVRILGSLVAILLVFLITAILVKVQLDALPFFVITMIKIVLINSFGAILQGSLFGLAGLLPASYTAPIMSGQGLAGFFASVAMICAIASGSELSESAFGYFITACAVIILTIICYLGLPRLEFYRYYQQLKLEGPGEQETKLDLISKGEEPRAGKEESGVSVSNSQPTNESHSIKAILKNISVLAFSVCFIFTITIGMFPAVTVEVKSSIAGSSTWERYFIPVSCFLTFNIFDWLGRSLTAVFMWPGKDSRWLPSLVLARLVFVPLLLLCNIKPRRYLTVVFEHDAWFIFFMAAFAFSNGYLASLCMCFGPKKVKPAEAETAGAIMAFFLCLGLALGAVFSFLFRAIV

[6] = molecular target: T6, Amine oxidase [flavin-containing] A (Homo sapiens, UniProt P21397); assay type: functional
T6 sequence (P21397 whole entry): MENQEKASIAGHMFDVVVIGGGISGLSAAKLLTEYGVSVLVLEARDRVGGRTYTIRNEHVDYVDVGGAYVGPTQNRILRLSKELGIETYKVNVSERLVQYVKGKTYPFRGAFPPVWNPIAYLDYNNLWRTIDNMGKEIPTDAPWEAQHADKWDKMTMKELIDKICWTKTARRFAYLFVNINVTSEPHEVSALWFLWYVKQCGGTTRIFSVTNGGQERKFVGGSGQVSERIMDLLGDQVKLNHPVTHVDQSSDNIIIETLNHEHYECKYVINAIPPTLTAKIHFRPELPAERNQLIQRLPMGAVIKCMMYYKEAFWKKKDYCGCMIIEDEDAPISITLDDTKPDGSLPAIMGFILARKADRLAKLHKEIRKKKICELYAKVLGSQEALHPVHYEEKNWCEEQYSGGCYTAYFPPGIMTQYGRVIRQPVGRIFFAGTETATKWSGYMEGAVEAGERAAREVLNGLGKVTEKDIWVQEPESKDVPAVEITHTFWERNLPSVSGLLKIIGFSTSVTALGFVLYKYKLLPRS
Also: assay procedure not described here.

Sequence of Adenosine receptor A2a (P29274 whole entry): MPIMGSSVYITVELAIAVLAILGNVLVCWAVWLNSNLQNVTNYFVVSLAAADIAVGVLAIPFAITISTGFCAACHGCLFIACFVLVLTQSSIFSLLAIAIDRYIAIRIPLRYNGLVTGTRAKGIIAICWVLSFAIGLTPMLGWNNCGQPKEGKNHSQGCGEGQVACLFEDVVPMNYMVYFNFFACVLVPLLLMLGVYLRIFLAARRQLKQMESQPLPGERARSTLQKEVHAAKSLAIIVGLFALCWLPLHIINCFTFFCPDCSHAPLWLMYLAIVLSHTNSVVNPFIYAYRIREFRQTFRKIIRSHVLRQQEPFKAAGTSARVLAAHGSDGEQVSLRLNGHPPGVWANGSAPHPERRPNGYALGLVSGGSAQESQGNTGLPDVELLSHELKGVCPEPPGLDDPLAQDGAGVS

| SMILES | AC50 (Adenosine receptor A2a) [µM] | AC50 (Adenosine receptor A3) [µM] | AC50 [1] [µM] | AC50 [2] [µM] | AC50 (D(1A) dopamine receptor) [µM] | AC50 [3] [µM] | AC50 [4] [µM] | AC50 (Melanocortin receptor 3) [µM] | AC50 (Motilin receptor) [µM] | AC50 [5] [µM] | AC50 [6] [µM] |
| --- | --- | --- | --- | --- | --- | --- | --- | --- | --- | --- | --- |
| CCOC(=O)Nc1ccc(NCc2ccc(F)cc2)nc1N [FLUPIRTINE] | > 30 | 21 | > 30 | > 30 | > 30 | > 30 | > 30 | > 30 | > 30 | > 30 | > 30 |
| N[C@@H](Cc1cc(I)c(Oc2cc(I)c(O)c(I)c2)c(I)c1)C(=O)O [LEVOTHYROXINE] | > 30 | 11 | > 30 | > 30 | > 30 | > 30 | > 30 | > 30 | > 30 | > 30 | > 30 |
| CN(C)CCc1c[nH]c2ccc(CS(=O)(=O)N3CCCC3)cc12 [ALMOTRIPTAN] | > 30 | > 30 | > 30 | > 30 | > 30 | > 30 | 25 | > 30 | > 30 | > 30 | > 30 |
| CCN(CCO)CCCC(C)Nc1ccnc2cc(Cl)ccc12 (stereo not drawn) [HYDROXYCHLOROQUINE] | > 10 | > 10 | > 10 | > 10 | > 10 | > 10 | > 10 | > 10 | > 10 | > 10 | > 10 |
| COC(=O)CCc1ccc(OCC(O)CNC(C)C)cc1 (stereo not drawn) [ESMOLOL] | > 30 | > 30 | > 30 | > 30 | > 30 | > 30 | > 30 | > 30 | > 30 | > 30 | > 30 |
| c1cnc2cc3c(cc2n1)[C@@H]1CNC[C@H]3C1 [VARENICLINE] | > 30 | > 30 | > 30 | > 30 | > 30 | > 30 | > 30 | > 30 | > 30 | > 30 | > 30 |
| CN(C)CCC=C1c2ccccc2CCc2ccccc21 [AMITRIPTYLINE] | > 30 | 14.1 | > 10 | 1.4 | > 10 | > 10 | > 10 | 23 | > 30 | > 30 | > 10 |
| O=C(O)COC(=O)Cc1ccccc1Nc1c(Cl)cccc1Cl [ACECLOFENAC] | > 30 | > 30 | > 10 | > 30 | > 10 | > 10 | > 10 | > 30 | > 10 | > 30 | > 10 |
